From US20240024338A1, “CARBIDOPA AND L-DOPA PRODRUGS AND METHODS OF USE” (AbbVie Inc., priority 2016, published 2024)

Legend:
[1] = 1-Day stability study of prodrugs in aqueous solution; assay type: physicochemical; settings: aqueous solution 80 μg/mL, ambient storage, pH 7.0
Protocol: The L-dopa phosphate prodrugs and the carbidopa phosphate prodrugs were evaluated in a stability study.

[2] = 1-Day stability study, diphosphate combination solution; assay type: physicochemical; settings: combination solution: L-dopa 3′,4′-diphosphate 35 mg/mL + carbidopa 3′,4′-diphosphate 8.7 mg/mL, pH 6.2, room temperature, nitrogen purged
Protocol: In addition, a solution combining the diphosphates of each compound (L-dopa 3′, 4′-diphosphate at 35 mg/mL and carbidopa 3′, 4′-diphosphate at 8.7 mg/mL) was monitored over one day at room temperature. This sample was purged with nitrogen to remove oxygen.

[3] = Phosphate prodrug solubility study in water; assay type: physicochemical; settings: water, ambient, visual assessment, pH 5.5, Amorphous
Protocol: The L-dopa phosphate prodrugs and the carbidopa phosphate prodrugs were evaluated in a solubility study. The solubility values of the phosphate prodrugs in water under ambient conditions were determined by visual assessment. Table 13-A reports the results of the study, including the measured values for L-dopa and carbidopa.

[4] = In vitro bioconversion study (blood), human; assay type: in vitro ADME; settings: prodrug 2.5 μg/mL, 37° C.
Protocol: (§2) The in vitro bioconversion of the L-dopa phosphate prodrugs to L-dopa and the carbidopa phosphate prodrugs to carbidopa was evaluated in several studies. In brief, the L-dopa and carbidopa phosphate prodrugs (2.5 μg/mL) were incubated with tissue homogenate or fractions from rats, mini-pigs, or human, including blood, skin homogenate (3 mg/mL), liver microsomes (1 mg/mL), liver S9 fraction (1 mg/mL), kidney S9 fraction (1 mg/mL), and intestine S9 fractions (1 mg/mL). The reaction mixtures were incubated at 37° C. for 5 to 6 time points within 1 to 2 hours. At the end of each time point, the reaction mixtures were quenched by 2 to 3 volumes of 5% trichloroacetic acid in water. After quenching, the mixtures were centrifuged at 3000 rpm for 20 minutes, and the supernatants were analyzed by LC-MS for quantitation of the prodrug, L-dopa or carbidopa. The in vitro bioconversion was assessed by monitoring both time-dependent depletion of the prodrug and the formation of the corresponding L-dopa or carbidopa.

[5] = In vitro bioconversion study (blood), mini-pig; assay type: in vitro ADME; settings: prodrug 2.5 μg/mL, 37° C.
Protocol: as §2

[6] = In vitro bioconversion study (skin homogenates), human; settings: human skin homogenate 3 mg/mL, prodrug 2.5 μg/mL, 37° C.
[7] = In vitro bioconversion study (skin homogenates), rat; settings: rat skin homogenate 3 mg/mL, prodrug 2.5 μg/mL, 37° C.
[8] = In vitro bioconversion study (skin homogenates), mini-pig; settings: mini-pig skin homogenate 3 mg/mL, prodrug 2.5 μg/mL, 37° C.
[9] = In vitro bioconversion study, human liver microsomes; assay type: in vitro ADME; settings: human liver microsomes 1 mg/mL, prodrug 2.5 μg/mL, 37° C.
Protocol: as §2

[10] = In vitro bioconversion study, liver S9 fraction, rat; assay type: in vitro ADME; settings: rat liver S9 fraction 1 mg/mL, prodrug 2.5 μg/mL, 37° C.
Protocol: as §2

[11] = In vitro bioconversion study, liver S9 fraction, mini-pig; assay type: in vitro ADME; settings: mini-pig liver S9 fraction 1 mg/mL, prodrug 2.5 μg/mL, 37° C.
Protocol: as §2

[12] = In vitro bioconversion study, liver S9 fraction, human; assay type: in vitro ADME; settings: human liver S9 fraction 1 mg/mL, prodrug 2.5 μg/mL, 37° C.
Protocol: as §2

[13] = In vitro bioconversion study, kidney S9 fraction, rat; assay type: in vitro ADME; settings: rat kidney S9 fraction 1 mg/mL, prodrug 2.5 μg/mL, 37° C.
Protocol: as §2

[14] = In vitro bioconversion study, kidney S9 fraction, human; assay type: in vitro ADME; settings: human kidney S9 fraction 1 mg/mL, prodrug 2.5 μg/mL, 37° C.
Protocol: as §2

[15] = In vitro bioconversion study (intestinal S9 fractions), human; assay type: in vitro ADME; settings: human intestinal S9 fraction 1 mg/mL, prodrug 2.5 μg/mL, 37° C.
Excerpt: (§1) The t1/2 appeared to be shorter in human intestinal S9 than in rat intestinal S9.

[16] = In vitro bioconversion study (intestinal S9 fractions), rat; assay type: in vitro ADME; settings: rat intestinal S9 fraction 1 mg/mL, prodrug 2.5 μg/mL, 37° C.
Excerpt: as §1

[17] = test system: rats; assay: Local tolerability in rats, single SC bolus dose; assay type: in vivo; settings: concentrations up to 125 mg/mL
[18] = In vitro bioconversion study (blood), rat; settings: prodrug 2.5 μg/mL, 37° C.
Protocol: The in vitro bioconversion of the L-dopa phosphate prodrugs to L-dopa and the carbidopa phosphate prodrugs to carbidopa was evaluated in several studies. […] The reaction mixtures were incubated at 37° C. for 5 to 6 time points within 1 to 2 hours. At the end of each time point, the reaction mixtures were quenched by 2 to 3 volumes of 5% trichloroacetic acid in water. After quenching, the mixtures were centrifuged at 3000 rpm for 20 minutes, and the supernatants were analyzed by LC-MS for quantitation of the prodrug, L-dopa or carbidopa. The in vitro bioconversion was assessed by monitoring both time-dependent depletion of the prodrug and the formation of the corresponding L-dopa or carbidopa.

[19] = listed as diphosphate prodrug of L-dopa

N[C@@H](Cc1ccc(OP(=O)(O)O)c(OP(=O)(O)O)c1)C(=O)O [L-dopa 3′,4′-diphosphate]
% Remaining After One Day [1]: >99%
% Remaining After One Day [2]: >99%
Solubility [3]: >330 mg/mL
L-Dopa or Carbidopa Formation [4]: Yes
T1/2 [4]: 2.3 h
L-Dopa or Carbidopa Formation [5]: Yes
T1/2 [5]: 2.08 h
L-Dopa or Carbidopa Formation [6]: No
T1/2 [6]: stable
L-Dopa or Carbidopa Formation [7]: No
T1/2 [7]: stable
L-Dopa or Carbidopa Formation [8]: No
T1/2 [8]: stable
stability and formation of L-dopa or carbidopa [9]: stable without formation of L-dopa or carbidopa observed
stability and formation of L-dopa or carbidopa [10]: stable without formation of L-dopa or carbidopa observed
stability and formation of L-dopa or carbidopa [11]: stable without formation of L-dopa or carbidopa observed
stability and formation of L-dopa or carbidopa [12]: stable without formation of L-dopa or carbidopa observed
stability and formation of L-dopa or carbidopa [13]: stable without formation of L-dopa or carbidopa observed
stability and formation of L-dopa or carbidopa [14]: stable without formation of L-dopa or carbidopa observed
L-Dopa or Carbidopa Formation [15]: Yes
T1/2 [15, 19]: rapidly dephosphorylated
L-Dopa or Carbidopa Formation [16]: Yes
T1/2 [16, 19]: rapidly dephosphorylated
clinical signs or microscopic findings of local intolerance [17]: no adverse clinical signs or microscopic findings indicative of local intolerance
L-Dopa or Carbidopa Formation [18]: Yes
T1/2 [18]: 6 min
